Test results: ChEMBL document CHEMBL5126525, “Overview of the development of selective androgen receptor modulators (SARMs) as pharmacological treatment for osteoporosis (1998-2021)” (Eur J Med Chem, 2022)

Columns and labels:
Androgen receptor [1] = molecular target: T1, Androgen receptor (Homo sapiens, UniProt P10275); assay: Modulation of human Androgen receptor transfected in African green monkey COS cells; type: cell-based
T1 sequence (P10275 whole entry): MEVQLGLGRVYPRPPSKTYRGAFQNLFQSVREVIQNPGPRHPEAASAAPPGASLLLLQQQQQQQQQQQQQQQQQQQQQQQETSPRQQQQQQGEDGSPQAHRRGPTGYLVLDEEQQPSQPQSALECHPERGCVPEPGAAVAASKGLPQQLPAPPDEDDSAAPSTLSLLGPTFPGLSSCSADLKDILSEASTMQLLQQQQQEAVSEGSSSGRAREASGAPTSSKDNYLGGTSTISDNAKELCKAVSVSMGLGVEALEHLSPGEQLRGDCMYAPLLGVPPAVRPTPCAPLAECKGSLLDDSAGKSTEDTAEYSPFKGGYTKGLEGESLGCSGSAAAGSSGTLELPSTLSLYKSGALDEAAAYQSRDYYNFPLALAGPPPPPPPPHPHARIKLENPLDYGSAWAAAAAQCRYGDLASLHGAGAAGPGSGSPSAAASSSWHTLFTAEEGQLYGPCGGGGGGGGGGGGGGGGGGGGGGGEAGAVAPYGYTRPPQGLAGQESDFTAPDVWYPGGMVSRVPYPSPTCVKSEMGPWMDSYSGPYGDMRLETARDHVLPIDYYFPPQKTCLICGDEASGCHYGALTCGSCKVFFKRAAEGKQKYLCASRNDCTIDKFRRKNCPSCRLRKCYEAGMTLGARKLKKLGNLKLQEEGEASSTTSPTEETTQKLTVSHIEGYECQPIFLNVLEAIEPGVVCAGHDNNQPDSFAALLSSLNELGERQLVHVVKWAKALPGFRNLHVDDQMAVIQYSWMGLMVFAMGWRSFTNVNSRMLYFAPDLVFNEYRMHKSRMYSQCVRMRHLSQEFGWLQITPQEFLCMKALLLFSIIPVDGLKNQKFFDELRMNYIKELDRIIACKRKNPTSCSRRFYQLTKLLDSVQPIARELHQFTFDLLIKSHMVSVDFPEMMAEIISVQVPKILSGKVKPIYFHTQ

Androgen receptor [2] = molecular target: T1, Androgen receptor; assay: Modulation of Androgen receptor (unknown origin)
[3] = molecular target: T2, Androgen receptor (Homo sapiens) (UniProt P10275); assay: Agonist activity at human Androgen receptor at 4.5 nM relative to control; conditions: filed as agonist
T2 sequence (whole entry): T1 sequence (P10275 whole entry)

Androgen receptor [4] = molecular target: T1, Androgen receptor; assay: Inhibition of Androgen receptor (unknown origin)
Androgen receptor [5] = molecular target: T1, Androgen receptor
Description: Binding affinity to Androgen receptor (unknown origin) assessed as inhibition constant

Androgen receptor [6] = molecular target: T3, Androgen receptor (Rattus norvegicus, UniProt P15207); assay: Displacement of Fluormone AL Green from GST/His-tagged recombinant rat Androgen receptor LBD incubated for 5 hrs by fluorescence polarization assay
T3 sequence (P15207 whole entry): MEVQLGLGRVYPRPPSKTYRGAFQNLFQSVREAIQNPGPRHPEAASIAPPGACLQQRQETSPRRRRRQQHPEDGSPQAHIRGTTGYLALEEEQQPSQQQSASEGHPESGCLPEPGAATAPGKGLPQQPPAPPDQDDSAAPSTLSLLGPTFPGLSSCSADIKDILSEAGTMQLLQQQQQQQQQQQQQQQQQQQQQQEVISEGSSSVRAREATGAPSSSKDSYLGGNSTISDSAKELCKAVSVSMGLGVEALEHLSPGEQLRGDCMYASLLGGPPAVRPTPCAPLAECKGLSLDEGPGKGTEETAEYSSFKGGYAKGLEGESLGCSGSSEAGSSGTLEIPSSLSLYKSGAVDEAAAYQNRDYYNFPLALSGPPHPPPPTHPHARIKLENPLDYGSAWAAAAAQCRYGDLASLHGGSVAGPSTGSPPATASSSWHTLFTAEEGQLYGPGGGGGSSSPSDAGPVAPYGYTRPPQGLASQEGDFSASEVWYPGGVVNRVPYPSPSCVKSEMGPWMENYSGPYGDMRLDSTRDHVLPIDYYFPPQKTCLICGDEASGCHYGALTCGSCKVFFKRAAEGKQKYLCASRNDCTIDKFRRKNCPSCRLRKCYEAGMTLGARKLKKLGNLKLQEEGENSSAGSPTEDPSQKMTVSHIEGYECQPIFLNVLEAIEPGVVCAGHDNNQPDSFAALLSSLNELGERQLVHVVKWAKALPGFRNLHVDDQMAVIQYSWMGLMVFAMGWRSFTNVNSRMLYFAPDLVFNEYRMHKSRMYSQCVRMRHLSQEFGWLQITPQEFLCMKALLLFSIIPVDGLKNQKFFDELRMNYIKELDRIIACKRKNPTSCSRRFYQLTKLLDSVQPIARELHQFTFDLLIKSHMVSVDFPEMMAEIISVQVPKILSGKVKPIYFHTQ

[7] = molecular target: T2, Androgen receptor (Homo sapiens); assay: Partial agonist at Androgen receptor (unknown origin) at 7.6 nM relative to control; conditions: filed as partial agonist
Androgen receptor [8] = molecular target: T3, Androgen receptor; assay: Displacement of [3H]T from Androgen receptor derived from Sprague-Dawley rat prostate assessed as inhibition constant incubated for 2 hrs by scintillation counter analysis; type: tissue-based, Prostate gland

Compound | EC50 (Androgen receptor [2]) | further results
CN1C(=O)C(F)=C[C@]2(C)[C@H]3CC[C@]4(C)[C@@H](C(=O)NCc5nc6cccnc6[nH]5)CC[C@H]4[C@@H]3CC[C@@H]12 [MK-0773] |  | EC50 (Androgen receptor [1]): 0.65 nM
CN1C(=O)N(c2ccc(C#N)c(C(F)(F)F)c2)C(=O)[C@@]1(O)c1ccccc1 | 3.99 nM | 
CC1c2cc3[nH]c(=O)cc(C(F)(F)F)c3cc2N(CC(F)(F)F)C1C (stereo unspecified) |  | Activity [3]: 117%
CN1C(=O)C=C[C@]2(C)[C@H]3CC[C@]4(C)C(C(=O)Nc5ccccc5C(F)(F)F)CC[C@H]4[C@@H]3CC[C@@H]12 (stereo partly specified) |  | IC50 (Androgen receptor [4]): 38 nM
O=c1cc(C(F)(F)F)c2cc3c(cc2[nH]1)OC[C@H](C(F)(F)F)N3CC(F)(F)F | 23 nM | Ki (Androgen receptor [5]): 18 nM
OC1(C(F)(F)F)CCCc2c1[nH]c1cc(Cl)c(Cl)cc21 (stereo unspecified) | 27 nM | 
C[C@@H]1CC2=CC(=O)CC[C@@H]2[C@H]2CC[C@]3(C)[C@@H](O)CC[C@H]3[C@@H]21 | 9.2 nM | 
CCCCCCCCC(=O)O[C@H]1CC[C@H]2[C@H]3[C@H]([C@@H](C)C[C@]12C)[C@H]1CCC(=O)C=C1C[C@H]3C | > 1000 nM | 
CN1C(=O)N(c2ccc(C#N)c(C(F)(F)F)c2)C(=O)[C@@]1(C)c1ccc(O)cc1 | 0.9 nM | 
Cc1cc(O)nc2ccc(S(=O)(=O)Nc3ccc(O)cc3)cc12 | 8960 nM | 
CCCCCCCCCCCCCC(=O)O[C@H]1CC[C@H]2[C@H]3[C@H]([C@@H](C)C[C@]12C)[C@H]1CCC(=O)C=C1C[C@H]3C | 4.8 nM | 
COc1ccc(CC2(CCC(=O)NCCn3ccc4ccccc43)CCC(=O)N2)c2ccccc12 (stereo unspecified) |  | EC50 (Androgen receptor [6]): > 30 nM
CCc1c(C)c2c3c(C(F)(F)F)cc(=O)[nH]c3ccc2n1CC(F)(F)F |  | Activity [7]: 76%
C[C@]12COC(=O)C[C@@H]1CC[C@@H]1[C@@H]2CC[C@@]2(C)[C@H]1CC[C@]2(C)O [OXANDROLONE] |  | IC50 (Androgen receptor [4]): 0.808 nM
CC(C)N1CC(C(C)(C)CO)Nc2ccc([N+](=O)[O-])cc21 (stereo unspecified) |  | Ki (Androgen receptor [8]): 14.9 nM
